# Reference: ChEMBL document CHEMBL5137054, “Xyloketal B Reverses Nutritional Hepatic Steatosis, Steatohepatitis, and Liver Fibrosis through Activation of the PPARα/PGC1α Signaling Pathway” (J Nat Prod, 2022)
# The source made the active and inactive calls. The calls are words filed in the database; no cut-off is given here.
# Columns and labels:
# [1] = test system: Mus musculus; assay: In vivo activation of PPARalpha/PGC1alpha pathway in HFD-induced C57BL/6J mouse model of NAFL assessed as increase in PGC1alpha expression in liver administered intraperitoneally from week 7 to week 12 by immunoblotting analysis; format: functional, organism-based; settings: dose 20-40 mg/kg/day, route ip, time 6.0 weeks
# [2] = test system: Mus musculus; assay: Anti-inflammatory activity against MCD-induced C57BL/6J mouse model of nonalcoholic steatohepatitis assessed as downregulation of IL1beta expression in liver at 20 to 40 mg/kg/day, ip administered from week 3 to week 4 by immunoblotting analysis; format: functional, organism-based; settings: dose 20-40 mg/kg/day, time 2.0 weeks
# [3] = test system: Mus musculus; assay: Upregulation of Cpt1b gene transcriptional level in HFD-induced C57BL/6J mouse model of NAFL at 20 to 40 mg/kg/day, ip administered from week 7 to week 12 by qRT-PCR analysis; format: functional, organism-based; settings: dose 20-40 mg/kg/day, time 6.0 weeks
# [4] = test system: HepG2; assay: Inhibition of FFA-induced lipid accumulation in human HepG2 cells incubated for 24 hrs by Oil Red O staining based spectrophotometric analysis; format: functional, cell-based; settings: dose 50-100 µM, DDE = dose-dependent effect
# [5] = test system: Mus musculus; assay: Upregulation of peroxisomal bifunctional enzyme gene transcriptional level in HFD-induced C57BL/6J mouse model of NAFL at 20 to 40 mg/kg/day, ip administered from week 7 to week 12 by qRT-PCR analysis; format: functional, organism-based; settings: dose 20-40 mg/kg/day, time 6.0 weeks
# [6] = test system: Mus musculus; assay: Antifibrotic activity against MCD-induced C57BL/6J mouse model of liver fibrosis assessed as reduction in alphaSMA level in liver at 20 to 40 mg/kg, ip administered from week 3 to week 6 by […]; format: functional, organism-based; settings: dose 20-40 mg/kg, time 4.0 weeks
# [7] = test system: Mus musculus; assay: Antifibrotic activity against MCD-induced C57BL/6J mouse model of liver fibrosis assessed as reduction in number of collagenous fibers in liver at 20 to 40 mg/kg, ip administered from week 3 to week 6 by masson's trichrome staining based light microscopic analysis; format: functional, organism-based; settings: dose 20-40 mg/kg, time 4.0 weeks
# [8] = test system: Mus musculus; assay: Anti-inflammatory activity against MCD-induced C57BL/6J mouse model of nonalcoholic steatohepatitis assessed as attenuation of VCAM1 expression in liver at 20 to 40 mg/kg/day, ip administered from week 3 to week 4 by immunoblotting analysis; format: functional, organism-based; settings: dose 20-40 mg/kg/day, time 2.0 weeks
# [9] = test system: Mus musculus; assay: Upregulation of Cyp4a10 gene transcriptional level in HFD-induced C57BL/6J mouse model of NAFL at 20 to 40 mg/kg/day, ip administered from week 7 to week 12 by qRT-PCR analysis; format: functional, organism-based; settings: dose 20-40 mg/kg/day, time 6.0 weeks
# [10] = test system: Mus musculus; assay: Upregulation of peroxisomal acyl-coenzyme A oxidase-1 enzyme expression in liver of HFD-induced C57BL/6J mouse model of NAFL at 15 mg/kg/day, ip administered from week 7 to week 12 by immunoblotting analysis; format: functional, organism-based; settings: time 6.0 weeks
# [11] = Toxicity in C57BL/6J mouse assessed as effect on lipid droplets in hepatocytes at 40 mg/kg, ip by H&E staining analysis; format: organism-based; settings: in vivo
# [12] = test system: Mus musculus; assay: Upregulation of Acox1 gene transcriptional level in HFD-induced C57BL/6J mouse model of NAFL at 20 to 40 mg/kg/day, ip administered from week 7 to week 12 by qRT-PCR analysis; format: functional, organism-based; settings: dose 20-40 mg/kg/day, time 6.0 weeks
# [13] = test system: Mus musculus; assay: Antifibrotic activity against MCD-induced C57BL/6J mouse model of liver fibrosis assessed as reduction in TIMP1 level in liver administered intraperitoneally from week 3 to week 6 by immunoblotting analysis; format: functional, organism-based; settings: dose 20-40 mg/kg, route ip, time 4.0 weeks, DDE = dose-dependent effect
# [14] = test system: Mus musculus; assay: Upregulation of Medium-chain specific acyl-CoA dehydrogenase gene transcriptional level in HFD-induced C57BL/6J mouse model of NAFL at 20 to 40 mg/kg/day, ip administered from week 7 to week 12 by qRT-PCR analysis; format: functional, organism-based; settings: dose 20-40 mg/kg/day, time 6.0 weeks
# [15] = test system: Mus musculus; assay: Reduction in hepatic steatosis in HFD-induced C57BL/6J mouse model of NAFL assessed as reduction in serum glucose level at 20 to 40 mg/kg/day, ip administered from week 7 to week 12; format: functional, organism-based; settings: dose 20-40 mg/kg/day, time 6.0 weeks
# [16] = Toxicity in C57BL/6J mouse assessed as effect on serum AST level at 40 mg/kg, ip; format: organism-based; settings: in vivo
# [17] = test system: Mus musculus; assay: Upregulation of Acox2 gene transcriptional level in HFD-induced C57BL/6J mouse model of NAFL at 20 to 40 mg/kg/day, ip administered from week 7 to week 12 by qRT-PCR analysis; format: functional, organism-based; settings: dose 20-40 mg/kg/day, time 6.0 weeks
# [18] = test system: Mus musculus; assay: Upregulation of carnitine O-palmitoyltransferase-1B enzyme expression in liver of HFD-induced C57BL/6J mouse model of NAFL at 15 mg/kg/day, ip administered from week 7 to week 12 by immunoblotting analysis; format: functional, organism-based; settings: time 6.0 weeks
# [19] = Toxicity in C57BL/6J mouse assessed as effect on serum triglyceride level at 40 mg/kg, ip; format: organism-based; settings: in vivo
# [20] = Toxicity in C57BL/6J mouse assessed as effect on relative liver weight at 40 mg/kg, ip; format: organism-based; settings: in vivo
# [21] = test system: Mus musculus; assay: Upregulation of peroxisomal bifunctional enzyme expression in liver of HFD-induced C57BL/6J mouse model of NAFL at 15 mg/kg/day, ip administered from week 7 to week 12 by immunoblotting analysis; format: functional, organism-based; settings: time 6.0 weeks
# [22] = test system: Mus musculus; assay: Antifibrotic activity against MCD-induced C57BL/6J mouse model of liver fibrosis assessed as reduction in TGFbeta level in liver administered intraperitoneally from week 3 to week 6 by immunoblotting analysis; format: functional, organism-based; settings: dose 20-40 mg/kg, route ip, time 4.0 weeks, DDE = dose-dependent effect
# [23] = Toxicity in C57BL/6J mouse assessed as effect on serum AST/ALT ratio at 40 mg/kg, ip; format: organism-based; settings: in vivo
# [24] = Toxicity in C57BL/6J mouse assessed as effect on serum cholesterol level at 40 mg/kg, ip; format: organism-based; settings: in vivo
# [25] = test system: Mus musculus; assay: Anti-inflammatory activity against MCD-induced C57BL/6J mouse model of nonalcoholic steatohepatitis assessed as downregulation of TNFalpha expression in liver at 20 to 40 mg/kg/day, ip administered from week 3 to week 4 by immunoblotting analysis; format: functional, organism-based; settings: dose 20-40 mg/kg/day, time 2.0 weeks
# [26] = Toxicity in C57BL/6J mouse assessed as effect on serum LDL level at 40 mg/kg, ip; format: organism-based; settings: in vivo
# [27] = test system: Mus musculus; assay: Anti-inflammatory activity against MCD-induced C57BL/6J mouse model of nonalcoholic steatohepatitis assessed as attenuation of ICAM1 expression in liver at 20 to 40 mg/kg/day, ip administered from week 3 to week 4 by immunoblotting analysis; format: functional, organism-based; settings: dose 20-40 mg/kg/day, time 2.0 weeks
# [28] = test system: Mus musculus; assay: Upregulation of peroxisomal acyl-coenzyme A oxidase-2 enzyme expression in liver of HFD-induced C57BL/6J mouse model of NAFL administered intraperitoneally from week 7 to week 12 by immunoblotting analysis; format: functional; settings: dose 20-40 mg/kg/day, route ip, time 6.0 weeks, DDE = dose-dependent effect
# [29] = test system: Mus musculus; assay: Upregulation of ACAA1 enzyme expression in liver of HFD-induced C57BL/6J mouse model of NAFL administered intraperitoneally from week 7 to week 12 by immunoblotting analysis; format: functional; settings: dose 20-40 mg/kg/day, route ip, time 6.0 weeks, DDE = dose-dependent effect
# [30] = test system: Mus musculus; assay: Upregulation of carnitine O-palmitoyltransferase-1B enzyme expression in liver of HFD-induced C57BL/6J mouse model of NAFL administered intraperitoneally from week 7 to week 12 by immunoblotting analysis; format: functional; settings: dose 20-40 mg/kg/day, route ip, time 6.0 weeks, DDE = dose-dependent effect
# [31] = Toxicity in C57BL/6J mouse assessed as effect on serum glucose level at 40 mg/kg, ip; format: organism-based; settings: in vivo
structure (smiles),measurement,setting,value
C[C@H]1CO[C@]2(C)Oc3cc(O)c4c(c3C[C@H]12)O[C@@]1(C)OC[C@H](C)[C@H]1C4,Activity,[1],Active
same,Activity,[2],Active
same,Activity,[3],Active
same,inhibition,[4],Dde
same,Activity,[5],Active
same,Activity,[6],Active
same,Activity,[7],Active
same,Activity,[8],Active
same,Activity,[9],Active
same,Activity,[10],Active
same,Activity,[11],Non-Toxic
same,Activity,[12],Active
same,Activity,[13],Dde
same,Activity,[14],Active
same,Activity,[15],Active
same,Activity,[16],Non-Toxic
same,Activity,[17],Active
same,Activity,[18],Active
same,Activity,[19],Non-Toxic
same,Activity,[20],Non-Toxic
same,Activity,[21],Active
same,Activity,[22],Dde
same,Activity,[23],Non-Toxic
same,Activity,[24],Non-Toxic
same,Activity,[25],Active
same,Activity,[26],Non-Toxic
same,Activity,[27],Active
same,Activity,[28],Dde
same,Activity,[29],Dde
same,Activity,[30],Dde
same,Activity,[31],Non-Toxic
